{
  "source": "patent US10780076B2",
  "about": "“Inhibition of cancer cell motility” (Northwestern University, priority 2014, dated 2020)",
  "key": {"[1]": {"test_system": "human PCa PC3-M cell orthotopic implants", "test": "Orthotopic murine model of human PCa metastasis", "format": "in vivo, mice", "details": "lung metastasis, KBU2046 in chow, dose-dependent", "method": "(§1) FIGS. 3A-D. KBU2046 inhibits cancer metastasis and prolongs life. (A, B) Inhibition of PCa metastasis. Cohorts of athymic mice bearing human PCa PC3-M cell orthotopic implants (A), or of non-tumor bearing athymic mice (B), were treated with KBU2046 incorporated into chow, and resultant lung metastasis (A) or plasma KBU2046 concentration (B) measured. Values are the mean±SEM. The relationship between dose and metastasis was evaluated by two-sided ANOVA (A). (C) Comprehensive characterization of KBU2046 phannacokinetics. CD1 mice were dosed with 100 mg KBU2046/kg via oral gavage or intravenous injection (iv), and blood collected at the indicated time points. The dotted horizontal line denotes a concentration of 24 nM, which was the concentration of KBU2046 measured in the blood of mice whose metastasis were suppressed by 92% (A, B). […]\n(§2) Orthotopic implantation of human PCa cells and quantification of distant metastasis was performed as described (Pavese et al., 2013; herein incorporated by reference in its entirety). […] Quantification of KBU2046 plasma concentrations was performed by LCMS. […] Critical organs were examined for structural damage using a semi-quantitative histological scoring system (Knodell et al., 1981; herein incorporated by reference in its entirety), while their function was assessed by comprehensive clinical laboratory testing of blood samples. […]"}, "[2]": {"test": "Plasma KBU2046 concentration in chow-treated athymic mice", "format": "in vivo", "method": "as §1, §2"}, "[3]": {"test_system": "phosphorylated Ser226 on HSP90β in PC3 cells", "test": "PhosphoScan LC-MS/MS of BL4176 immunoprecipitate", "format": "cell-based, human", "details": "10 μM, 3 days, then TGFβ", "method": "FIG. 16. Identification of the 83 kDa band using a proteomic approach. PC3 cells were pre-treated with 10 μM KBU2046 or vehicle (control) for 3 days, then treated with TGFβ for 1 hr, and the resultant cell lysates were subjected to immunoprecipitation with BL4176 (Kinoview® phospho-motif antibody). Proteins bound in this manner were analyzed using PhosphoScan™ technology. This identified 483 unique phosphopeptide assignments from 306 parent proteins, with a mean false discovery rate of 0.30% (estimated via Sorcerer search of composite human database of forward and reverse protein entries). Only proteins where the average values for treatment and control were each 3 times that of background were considered. Further, it was required that each of the replicate values (used to calculate the average) to be >/=2.5 fold above background. According to these parameters, there were 19 phospho-proteins whose expression decreased in cells treated with KBU2046, compared to control.\nScreening for changes in the kinome induced by KBU2046 were evaluated with the Kinoview™ assay system. Proteins pulled down by motif-directed Kinoview™ antibody were identified through PhosphoScan™ technology, using LTQ-Orbitrap LC-MS/MS analysis coupled to a SEQUEST/Sorcerer data analysis suite (Lundgren et al., 2009; herein incorporated by reference in its entirety). […]"}, "[4]": {"test_system": "osteonectin expression in PC3 cells", "test": "Gene array screen for differentially expressed genes", "format": "cell-based, human", "method": "FIGS. 21A-C. KBU2046 disrupts osteonectin expression. PC3 cells were treated +/− with 10 uM KBU2046×3 d (A), or were transfected with siRNA to osteonectin (siOST) or non-targeting (siCO) (B), and osteonectin/GAPDH expression measured by qRT/PCR. (C) PC3 cells were transfected with siOST, siCO, treated with +/−KBU2046, and cell invasion measured.\nHaving identified inhibition of Ser^226 phosphorylation as the molecular target of KBU2046 for inhibition of cell motility, experiments were conducted during development of embodiments herein to identify downstream regulators of its action. PC3 cells with KBU2046, and screened for differentially expressed genes using two different SABiosciences (Qiagen) gene array platforms: Human Metastasis Array and Human Extracellular Matrix and Adhesion Molecule Array. […] No other significant effects were identified. Separate experiments confirmed differential expression by gene-specific qRT/PCR (FIG. 21A). […] Clinically, overexpression of osteonectin in primary PCa has been associated with the development of metastasis to bone."}},
  "data": [
    {"smiles": "O=C1c2ccccc2OCC1c1ccc(F)cc1", "note": "(racemic) [KBU2046, 4′-fluoroisoflavanone]", "values": [
      {"measurement": "decrease in metastasis", "setting": "[1]", "result": "up to 92%"},
      {"measurement": "plasma concentrations at which metastasis decreased", "setting": "[2]", "result": "1.1 to 24", "unit": "nM"},
      {"measurement": "decrease in abundance of phosphorylated Ser226 on HSP90β", "setting": "[3]", "result": 6.6, "unit": "fold"},
      {"measurement": "suppression of osteonectin expression", "setting": "[4]", "result": 2.0, "unit": "fold"}
    ]}
  ]
}
